In ChEMBL document CHEMBL1201862, “PubChem BioAssay data set” (2004):
Active and inactive are the calls of the source.

Columns and labels:
[1] = molecular target: T1, Short transient receptor potential channel 4 (Mus musculus, UniProt Q9QUQ5); test: block of DAMGO-driven TRPC4 calcium entry – cell-based, HEK293 TRPC4/mu-opioid, Fluo-4 calcium, dose response (AID 434942); assay type: functional;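 also: potency of inhibitors blocking the TRPC4 calcium response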
T1 sequence (Q9QUQ5 whole entry): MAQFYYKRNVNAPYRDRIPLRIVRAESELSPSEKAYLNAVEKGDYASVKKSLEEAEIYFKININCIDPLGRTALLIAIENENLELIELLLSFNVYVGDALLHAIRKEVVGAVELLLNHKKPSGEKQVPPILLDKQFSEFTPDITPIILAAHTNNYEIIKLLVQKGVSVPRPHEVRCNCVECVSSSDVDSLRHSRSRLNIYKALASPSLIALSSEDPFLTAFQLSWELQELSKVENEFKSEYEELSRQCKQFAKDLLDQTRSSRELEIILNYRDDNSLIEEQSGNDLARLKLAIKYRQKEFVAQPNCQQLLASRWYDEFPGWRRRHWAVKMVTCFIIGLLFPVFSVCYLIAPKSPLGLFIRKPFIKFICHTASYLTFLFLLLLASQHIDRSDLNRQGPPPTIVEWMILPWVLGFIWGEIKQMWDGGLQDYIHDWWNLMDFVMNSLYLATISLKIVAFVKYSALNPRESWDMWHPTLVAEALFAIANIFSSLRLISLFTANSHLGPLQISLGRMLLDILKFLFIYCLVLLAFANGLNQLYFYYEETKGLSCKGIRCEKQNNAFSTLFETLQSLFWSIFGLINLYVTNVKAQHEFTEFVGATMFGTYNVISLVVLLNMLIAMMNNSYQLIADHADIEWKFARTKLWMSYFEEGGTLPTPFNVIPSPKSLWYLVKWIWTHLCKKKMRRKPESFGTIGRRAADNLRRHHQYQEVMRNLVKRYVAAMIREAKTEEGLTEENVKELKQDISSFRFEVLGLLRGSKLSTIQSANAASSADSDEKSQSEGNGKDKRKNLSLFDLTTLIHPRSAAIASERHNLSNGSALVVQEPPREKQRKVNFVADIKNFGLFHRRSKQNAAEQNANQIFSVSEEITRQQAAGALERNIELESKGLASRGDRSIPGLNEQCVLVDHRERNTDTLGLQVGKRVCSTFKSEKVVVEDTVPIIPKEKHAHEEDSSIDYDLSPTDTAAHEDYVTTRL

[2] = inhibition of mouse IRAP aminopeptidase activity – biochemical, Leu-AMC fluorescence, cherry-picked samples, set 2, selectivity assay for ERAP1 modulator project, dose response (AID 743340)
[3] = molecular target: T2, Rac GTPase-activating protein 1 (Homo sapiens, UniProt Q9H0H5); test: blockers of MgcRacGAP-driven Rac1 GTP hydrolysis – biochemical, ADP Hunter fluorescence, primary and confirmatory, confirmation (AID 624330); assay type: functional
T2 sequence (Q9H0H5 whole entry): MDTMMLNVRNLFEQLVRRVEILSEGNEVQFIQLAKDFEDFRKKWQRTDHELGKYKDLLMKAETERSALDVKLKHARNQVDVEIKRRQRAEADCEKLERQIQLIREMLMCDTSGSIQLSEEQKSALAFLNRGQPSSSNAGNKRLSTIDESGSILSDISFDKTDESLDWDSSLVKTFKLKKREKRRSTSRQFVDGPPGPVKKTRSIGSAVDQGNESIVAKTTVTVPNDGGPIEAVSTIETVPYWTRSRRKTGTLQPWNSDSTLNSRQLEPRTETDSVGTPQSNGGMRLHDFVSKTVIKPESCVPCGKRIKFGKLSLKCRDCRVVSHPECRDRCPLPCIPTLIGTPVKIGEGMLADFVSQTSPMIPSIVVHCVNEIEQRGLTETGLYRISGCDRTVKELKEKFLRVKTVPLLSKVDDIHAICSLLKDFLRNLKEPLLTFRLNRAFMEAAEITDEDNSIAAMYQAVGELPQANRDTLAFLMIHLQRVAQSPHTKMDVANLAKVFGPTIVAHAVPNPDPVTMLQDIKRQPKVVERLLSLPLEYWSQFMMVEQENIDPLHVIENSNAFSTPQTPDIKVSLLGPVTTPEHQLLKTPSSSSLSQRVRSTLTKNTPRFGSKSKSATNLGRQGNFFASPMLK

[4] = molecular target: T3, DNA repair protein RAD52 homolog (Homo sapiens, UniProt P43351); assay type: functional, biochemical
T3 sequence (P43351 whole entry): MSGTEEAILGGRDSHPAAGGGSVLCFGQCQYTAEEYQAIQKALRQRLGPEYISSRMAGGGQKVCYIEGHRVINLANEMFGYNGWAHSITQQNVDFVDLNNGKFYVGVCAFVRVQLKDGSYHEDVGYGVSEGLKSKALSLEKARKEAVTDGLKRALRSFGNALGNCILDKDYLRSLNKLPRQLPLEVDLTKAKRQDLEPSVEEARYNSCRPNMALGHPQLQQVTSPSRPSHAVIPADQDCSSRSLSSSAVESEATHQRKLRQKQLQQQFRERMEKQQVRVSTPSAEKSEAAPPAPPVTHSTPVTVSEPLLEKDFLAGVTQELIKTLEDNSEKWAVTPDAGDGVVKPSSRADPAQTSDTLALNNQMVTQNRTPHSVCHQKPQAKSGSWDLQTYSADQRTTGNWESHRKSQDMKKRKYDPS

[5] = Cytotoxicity screening for potential Inhibitors of Bacterial Capsule Biogenesis. [Related pubchem assays (depositor defined):AID488970]; assay type: functional
[6] = molecular target: Endoplasmic reticulum aminopeptidase 1 (Homo sapiens, UniProt Q9NZ08); test: inhibition of human ERAP1 enzyme activity – biochemical, cherry-pick, set 2, plate reader, dose response (AID 743314)
[7] = viability loss in HeLa cells – cytotoxicity control for MgcRacGAP inhibitor project, dose response (AID 624300); assay type: functional
Nonstructural protein 1 = Nonstructural protein 1 (Influenza A virus, UniProt Q194T2); assay type: functional, Influenza A virus (A/California/07/2009(H1N1))
[8] = loss of viability in HepG2 cells – cell-based, CellTiter-Glo, cherry-picked, cytotoxicity control for Shn3 inhibitor project, dose response (AID 624134); assay type: functional
[9] = reduction of Shn3 3'UTR-driven luciferase in osteoblasts – cell-based, Clone20 osteoblasts, firefly luciferase, cherry-picked, dose response (AID 624132); assay type: functional;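 also: firefly luciferase luminescence from reporter carrying the Shn3 3'UTR in osteoblasts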
[10] = non-specific 3'UTR reporter inhibition in Clone20-Shn3RL – cell-based, Renilla luciferase, cherry-picked, counter-screen for Shn3 inhibitor project, dose response (AID 624133); assay type: functional
[11] = molecular target: Protein phosphatase methylesterase 1 (Homo sapiens, UniProt Q9Y570); test: endogenous PME-1 and serine hydrolase inhibition – cell lysate, mouse brain cytosol, FP-rhodamine, gel ABPP, selectivity assay for PME-1 inhibitor project, dose response, panel member PME-1 Assay Panel member description: Inhibition of endogenously expressed PME-1 (AID 2366)
[12] = molecular target: T4, Voltage-gated N-type calcium channel alpha-1B subunit/Amyloid beta A4 precursor protein-binding family A member 1 (Homo sapiens, UniProt Q00975+Q02410); test: disruptors of Mint-PDZ/N-type channel peptide interaction – biochemical, HTRF, SAR follow-up (AID 2489); assay type: functional
[13] = molecular target: T4, Voltage-gated N-type calcium channel alpha-1B subunit/Amyloid beta A4 precursor protein-binding family A member 1; test: disruptors of Mint-PDZ/N-type channel peptide interaction – biochemical, HTRF, set 2, SAR follow-up (AID 434980); assay type: functional
[14] = molecular target: T5, Dual specificity protein phosphatase 3 (Homo sapiens, UniProt P51452); test: SAR VHR1 absorbance Assay for In Vitro dose response studies. [Related pubchem assays (depositor defined):AID1654, AID1661, AID1878, AID1992, AID2004]
[15] = molecular target: Tyrosine-protein phosphatase non-receptor type 12 (Homo sapiens, UniProt Q05209); test: SAR Selectivity Analysis of small molecule inhibitors of PEST using pCAP in a fluorescence assay. [Related pubchem assays (depositor defined):AID1779, AID1784, AID2135]; assay type: functional
[16] = molecular target: T6, Tyrosine-protein phosphatase non-receptor type 7 (Homo sapiens, UniProt P35236); test: redox-active compounds inhibiting HePTP phosphatase – biochemical, fluorescence, mechanism study (AID 2068); assay type: functional
T6 sequence (P35236 whole entry): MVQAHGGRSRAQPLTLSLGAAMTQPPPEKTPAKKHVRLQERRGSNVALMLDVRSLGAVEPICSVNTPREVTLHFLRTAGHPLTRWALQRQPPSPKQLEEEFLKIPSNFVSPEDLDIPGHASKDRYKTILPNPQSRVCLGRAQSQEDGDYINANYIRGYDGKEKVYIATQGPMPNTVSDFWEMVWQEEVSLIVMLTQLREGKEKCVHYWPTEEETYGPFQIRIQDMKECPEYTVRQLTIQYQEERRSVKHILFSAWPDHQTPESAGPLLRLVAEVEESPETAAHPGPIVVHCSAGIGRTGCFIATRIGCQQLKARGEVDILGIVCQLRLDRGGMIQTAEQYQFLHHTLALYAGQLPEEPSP

[17] = molecular target: T5, Dual specificity protein phosphatase 3; test: SAR VHR1 Fluorescent Assay for In Vitro dose response studies. [Related pubchem assays (depositor defined):AID1654, AID1661, AID1878, AID1992, AID2004, AID2070, AID2085]; assay type: functional
[18] = molecular target: T7, Tyrosine-protein phosphatase non-receptor type 22 (Homo sapiens, UniProt Q9Y2R2); test: SAR LYP1 Fluorescent Assay using OMFP substrate for In Vitro dose response studies - Set 3. [Related pubchem assays (depositor defined):AID1779, AID1784, AID2140, AID2686]; assay type: functional
T7 sequence (Q9Y2R2 whole entry): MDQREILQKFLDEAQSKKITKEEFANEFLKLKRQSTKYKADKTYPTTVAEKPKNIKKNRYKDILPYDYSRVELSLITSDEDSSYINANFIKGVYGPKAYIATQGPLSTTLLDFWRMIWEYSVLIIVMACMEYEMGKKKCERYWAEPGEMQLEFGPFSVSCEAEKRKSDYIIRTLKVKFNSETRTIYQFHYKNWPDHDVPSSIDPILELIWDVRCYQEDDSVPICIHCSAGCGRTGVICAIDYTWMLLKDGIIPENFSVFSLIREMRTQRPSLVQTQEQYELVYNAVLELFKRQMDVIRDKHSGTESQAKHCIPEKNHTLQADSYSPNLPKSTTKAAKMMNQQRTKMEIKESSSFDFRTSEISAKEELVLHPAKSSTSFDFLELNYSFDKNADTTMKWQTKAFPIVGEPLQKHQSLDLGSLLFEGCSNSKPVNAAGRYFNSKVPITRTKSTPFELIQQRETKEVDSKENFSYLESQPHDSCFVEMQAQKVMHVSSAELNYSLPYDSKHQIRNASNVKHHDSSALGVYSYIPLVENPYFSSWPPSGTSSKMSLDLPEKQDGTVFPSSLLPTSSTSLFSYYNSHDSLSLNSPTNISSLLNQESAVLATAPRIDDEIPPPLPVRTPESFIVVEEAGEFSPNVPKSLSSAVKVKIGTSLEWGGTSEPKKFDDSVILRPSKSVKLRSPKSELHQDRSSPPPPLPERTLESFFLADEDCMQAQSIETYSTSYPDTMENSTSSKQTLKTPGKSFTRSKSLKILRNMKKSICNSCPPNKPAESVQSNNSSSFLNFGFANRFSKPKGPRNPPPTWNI

[19] = molecular target: T7, Tyrosine-protein phosphatase non-receptor type 22; test: inhibition of lymphoid tyrosine phosphatase LYP – biochemical, pCAP fluorogenic substrate, fluorescence, set 3, SAR follow-up (AID 449727); assay type: functional
[20] = molecular target: T8, Dual specificity protein phosphatase 6 (Rattus norvegicus, UniProt Q64346); assay type: functional;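 also: confirmatory in vitro dose-response testing of MKP-3 inhibition; recombinant His-tagged MKP-3 made in E. coli BL21 with OMFP substrate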
T8 sequence (Q64346 whole entry): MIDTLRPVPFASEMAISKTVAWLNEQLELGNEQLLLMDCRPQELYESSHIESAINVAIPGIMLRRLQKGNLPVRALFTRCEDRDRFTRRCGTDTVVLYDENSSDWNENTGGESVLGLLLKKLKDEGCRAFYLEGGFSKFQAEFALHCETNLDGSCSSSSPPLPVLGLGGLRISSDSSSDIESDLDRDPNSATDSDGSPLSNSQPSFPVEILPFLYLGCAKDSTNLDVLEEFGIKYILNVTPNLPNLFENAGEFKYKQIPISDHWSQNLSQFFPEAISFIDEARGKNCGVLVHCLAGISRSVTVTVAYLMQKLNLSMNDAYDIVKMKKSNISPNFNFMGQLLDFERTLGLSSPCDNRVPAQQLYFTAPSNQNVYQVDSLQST

[21] = molecular target: Intestinal-type alkaline phosphatase (Homo sapiens, UniProt P09923); test: Dose Response confirmation of uHTS hits from a small molecule inhibitors of human intestinal alkaline phosphatase via a luminescent assay. [Related pubchem assays (depositor defined):AID2544, AID2574]; assay type: functional
X-box-binding protein 1 = X-box-binding protein 1 (Homo sapiens, UniProt P17861); assay type: functional, Cricetulus griseus;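 also: confirmatory dose-response counter-screen serving a CHOP assay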
ORF 73 = ORF 73 (Human herpesvirus 8, UniProt O40947); test: KSHV LANA DNA-binding disruption – biochemical, fluorescence polarization, cherry-picked samples, dose response (AID 504725); parameters: species or system Human gammaherpesvirus 8;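 also: fluorescence polarization of a labeled DNA duplex reporting LANA DNA binding; potency is for inhibitors that block LANA binding to the DNA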
Chain of ORF 73 (O40947 whole entry): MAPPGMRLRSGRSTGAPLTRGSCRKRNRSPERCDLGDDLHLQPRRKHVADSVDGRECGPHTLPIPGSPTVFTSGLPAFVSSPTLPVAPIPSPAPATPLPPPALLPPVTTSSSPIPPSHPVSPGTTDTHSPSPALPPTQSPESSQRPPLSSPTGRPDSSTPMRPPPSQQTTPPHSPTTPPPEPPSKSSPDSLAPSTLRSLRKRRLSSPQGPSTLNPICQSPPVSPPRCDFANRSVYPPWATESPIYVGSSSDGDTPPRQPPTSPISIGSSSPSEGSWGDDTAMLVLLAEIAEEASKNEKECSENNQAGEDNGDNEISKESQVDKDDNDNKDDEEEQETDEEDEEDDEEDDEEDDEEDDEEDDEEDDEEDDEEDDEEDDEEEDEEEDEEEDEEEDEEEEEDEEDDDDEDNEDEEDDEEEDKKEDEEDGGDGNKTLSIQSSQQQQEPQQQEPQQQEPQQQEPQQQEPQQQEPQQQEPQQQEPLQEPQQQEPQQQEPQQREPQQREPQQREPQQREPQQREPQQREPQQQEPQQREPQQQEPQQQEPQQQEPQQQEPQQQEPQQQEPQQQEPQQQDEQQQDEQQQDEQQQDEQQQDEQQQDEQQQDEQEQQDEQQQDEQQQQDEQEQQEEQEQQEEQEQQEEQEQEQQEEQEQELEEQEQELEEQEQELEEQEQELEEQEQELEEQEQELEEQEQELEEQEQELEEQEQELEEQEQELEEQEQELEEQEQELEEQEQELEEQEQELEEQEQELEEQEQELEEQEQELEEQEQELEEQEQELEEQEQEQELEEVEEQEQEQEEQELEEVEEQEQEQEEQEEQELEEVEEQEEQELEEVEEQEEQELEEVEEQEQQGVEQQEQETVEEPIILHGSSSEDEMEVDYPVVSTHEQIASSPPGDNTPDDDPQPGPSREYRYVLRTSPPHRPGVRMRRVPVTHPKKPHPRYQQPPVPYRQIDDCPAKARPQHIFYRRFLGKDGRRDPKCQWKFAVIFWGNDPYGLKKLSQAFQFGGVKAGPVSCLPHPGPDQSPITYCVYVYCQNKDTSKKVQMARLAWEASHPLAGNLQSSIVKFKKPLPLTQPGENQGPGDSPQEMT

T5 sequence (P51452 whole entry): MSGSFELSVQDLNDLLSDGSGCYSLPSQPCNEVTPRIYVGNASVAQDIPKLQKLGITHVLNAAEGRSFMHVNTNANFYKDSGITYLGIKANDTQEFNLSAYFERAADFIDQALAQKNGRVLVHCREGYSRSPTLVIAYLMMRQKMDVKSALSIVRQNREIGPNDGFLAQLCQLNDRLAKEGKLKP
T4 sequence (Q00975 whole entry): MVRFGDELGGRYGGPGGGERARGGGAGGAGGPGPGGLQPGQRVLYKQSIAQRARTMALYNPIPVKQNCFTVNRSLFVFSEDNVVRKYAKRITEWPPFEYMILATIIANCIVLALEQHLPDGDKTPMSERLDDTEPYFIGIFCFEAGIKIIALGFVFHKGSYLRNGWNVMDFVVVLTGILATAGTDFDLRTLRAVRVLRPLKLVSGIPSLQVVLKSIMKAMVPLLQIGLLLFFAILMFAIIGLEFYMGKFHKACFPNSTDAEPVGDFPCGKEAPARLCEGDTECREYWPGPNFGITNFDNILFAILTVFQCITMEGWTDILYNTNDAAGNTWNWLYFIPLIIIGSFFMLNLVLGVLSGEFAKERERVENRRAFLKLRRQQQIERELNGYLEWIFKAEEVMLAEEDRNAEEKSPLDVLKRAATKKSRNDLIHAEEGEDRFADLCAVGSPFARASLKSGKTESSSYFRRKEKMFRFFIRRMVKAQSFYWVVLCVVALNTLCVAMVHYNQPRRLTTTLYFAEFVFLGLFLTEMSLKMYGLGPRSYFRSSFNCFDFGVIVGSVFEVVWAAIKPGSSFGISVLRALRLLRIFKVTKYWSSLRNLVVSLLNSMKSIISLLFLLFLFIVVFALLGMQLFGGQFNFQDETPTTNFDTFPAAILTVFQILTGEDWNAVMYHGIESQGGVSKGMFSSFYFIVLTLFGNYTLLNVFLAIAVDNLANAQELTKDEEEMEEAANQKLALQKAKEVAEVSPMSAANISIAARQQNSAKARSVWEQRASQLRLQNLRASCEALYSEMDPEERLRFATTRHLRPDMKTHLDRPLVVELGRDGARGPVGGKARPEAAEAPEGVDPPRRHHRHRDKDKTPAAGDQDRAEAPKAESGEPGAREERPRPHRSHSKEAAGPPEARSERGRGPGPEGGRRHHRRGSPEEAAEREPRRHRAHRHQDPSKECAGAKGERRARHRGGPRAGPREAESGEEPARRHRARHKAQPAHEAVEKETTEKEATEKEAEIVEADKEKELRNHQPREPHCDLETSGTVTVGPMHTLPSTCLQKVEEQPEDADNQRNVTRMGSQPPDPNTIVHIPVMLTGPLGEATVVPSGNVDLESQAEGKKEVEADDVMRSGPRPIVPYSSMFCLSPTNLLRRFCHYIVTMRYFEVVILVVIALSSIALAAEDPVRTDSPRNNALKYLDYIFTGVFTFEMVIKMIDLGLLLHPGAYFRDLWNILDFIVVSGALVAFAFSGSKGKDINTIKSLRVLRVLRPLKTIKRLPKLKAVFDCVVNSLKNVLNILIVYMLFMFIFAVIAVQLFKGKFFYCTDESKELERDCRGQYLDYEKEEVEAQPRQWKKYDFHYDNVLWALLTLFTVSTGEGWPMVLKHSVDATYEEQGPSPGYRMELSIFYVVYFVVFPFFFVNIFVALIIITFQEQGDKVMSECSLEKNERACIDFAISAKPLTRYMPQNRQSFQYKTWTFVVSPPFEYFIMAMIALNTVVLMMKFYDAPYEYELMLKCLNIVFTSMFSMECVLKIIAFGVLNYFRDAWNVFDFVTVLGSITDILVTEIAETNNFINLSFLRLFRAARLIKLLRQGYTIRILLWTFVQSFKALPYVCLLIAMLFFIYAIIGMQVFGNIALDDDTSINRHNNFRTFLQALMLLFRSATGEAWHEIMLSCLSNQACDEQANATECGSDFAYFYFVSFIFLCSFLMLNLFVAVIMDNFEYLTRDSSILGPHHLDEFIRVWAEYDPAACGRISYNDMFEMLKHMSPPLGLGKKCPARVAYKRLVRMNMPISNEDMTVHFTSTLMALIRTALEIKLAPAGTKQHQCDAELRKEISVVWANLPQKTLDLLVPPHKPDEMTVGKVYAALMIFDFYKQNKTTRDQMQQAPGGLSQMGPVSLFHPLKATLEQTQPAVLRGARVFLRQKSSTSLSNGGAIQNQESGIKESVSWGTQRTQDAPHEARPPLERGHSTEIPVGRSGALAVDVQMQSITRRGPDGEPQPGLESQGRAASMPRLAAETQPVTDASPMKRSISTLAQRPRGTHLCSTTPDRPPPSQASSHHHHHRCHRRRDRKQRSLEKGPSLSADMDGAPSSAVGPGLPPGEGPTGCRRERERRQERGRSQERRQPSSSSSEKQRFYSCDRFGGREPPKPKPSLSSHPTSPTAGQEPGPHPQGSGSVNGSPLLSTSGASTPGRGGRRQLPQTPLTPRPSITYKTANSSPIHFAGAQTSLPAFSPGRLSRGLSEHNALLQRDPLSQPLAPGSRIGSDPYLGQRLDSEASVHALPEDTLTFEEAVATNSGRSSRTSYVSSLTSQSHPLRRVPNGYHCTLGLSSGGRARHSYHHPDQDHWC
T4 sequence (Q02410 whole entry): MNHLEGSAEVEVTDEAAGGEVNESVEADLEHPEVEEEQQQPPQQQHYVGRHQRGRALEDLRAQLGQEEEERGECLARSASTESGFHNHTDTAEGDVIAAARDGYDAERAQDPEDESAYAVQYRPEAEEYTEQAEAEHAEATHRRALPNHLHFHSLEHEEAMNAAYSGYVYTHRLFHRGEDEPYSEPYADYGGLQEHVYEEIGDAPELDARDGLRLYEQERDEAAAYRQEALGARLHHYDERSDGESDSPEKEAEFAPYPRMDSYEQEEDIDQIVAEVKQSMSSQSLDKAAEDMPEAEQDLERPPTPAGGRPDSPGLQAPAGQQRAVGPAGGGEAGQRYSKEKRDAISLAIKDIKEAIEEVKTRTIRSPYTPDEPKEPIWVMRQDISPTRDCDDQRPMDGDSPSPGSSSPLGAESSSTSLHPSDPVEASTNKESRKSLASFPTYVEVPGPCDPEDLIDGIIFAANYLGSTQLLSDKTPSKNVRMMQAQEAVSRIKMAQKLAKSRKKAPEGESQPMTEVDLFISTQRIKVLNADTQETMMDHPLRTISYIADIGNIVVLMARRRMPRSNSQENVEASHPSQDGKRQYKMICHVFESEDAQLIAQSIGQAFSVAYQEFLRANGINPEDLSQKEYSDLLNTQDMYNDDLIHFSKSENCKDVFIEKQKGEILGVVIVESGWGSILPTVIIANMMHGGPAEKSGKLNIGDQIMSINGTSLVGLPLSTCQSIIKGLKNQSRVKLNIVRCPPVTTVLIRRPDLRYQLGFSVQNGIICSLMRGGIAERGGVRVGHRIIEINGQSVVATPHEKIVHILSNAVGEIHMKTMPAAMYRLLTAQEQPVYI
Chain of X-box-binding protein 1 (P17861 whole entry): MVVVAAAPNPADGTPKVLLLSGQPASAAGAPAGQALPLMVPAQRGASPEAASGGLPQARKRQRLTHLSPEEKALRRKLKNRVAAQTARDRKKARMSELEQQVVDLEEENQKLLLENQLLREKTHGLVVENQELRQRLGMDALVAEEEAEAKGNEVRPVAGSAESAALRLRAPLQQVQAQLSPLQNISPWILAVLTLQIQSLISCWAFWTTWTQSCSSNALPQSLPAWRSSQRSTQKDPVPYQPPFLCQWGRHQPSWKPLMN
Chain of Protein phosphatase methylesterase 1 (Q9Y570 whole entry): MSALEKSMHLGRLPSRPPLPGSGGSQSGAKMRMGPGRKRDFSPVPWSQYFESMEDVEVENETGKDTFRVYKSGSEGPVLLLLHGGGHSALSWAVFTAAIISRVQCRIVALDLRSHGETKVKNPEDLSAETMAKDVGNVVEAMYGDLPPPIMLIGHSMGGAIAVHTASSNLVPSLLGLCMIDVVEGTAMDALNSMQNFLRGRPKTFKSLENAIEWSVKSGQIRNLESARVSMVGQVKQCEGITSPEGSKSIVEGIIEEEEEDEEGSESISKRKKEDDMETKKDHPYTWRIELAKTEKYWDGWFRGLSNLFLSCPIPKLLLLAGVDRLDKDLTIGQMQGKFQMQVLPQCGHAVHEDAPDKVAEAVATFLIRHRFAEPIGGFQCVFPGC

SMILES: CCCCn1c2ccccc2c2nnc(SCCN3CCCCC3)nc21
- EC50 [1]: 6.68 µM (active)

SMILES: CCN(CCCl)c1cc(CN(C)C)cc(NC(=O)c2ccc(C(=O)Nc3cc(CN(C)C)cc(N(CC)CCCl)c3)cc2)c1
- AC50 [2]: 19.4 µM (active)
- IC50 [3]: 126 µM (active)
- AC50 [4]: 1.71 µM (active)
- CC50 [5]: < 380 nM (active)
- AC50 [6]: 4.85 µM (active)
- CC50 [7]: 6.78 µM (active)
- IC50 (Nonstructural protein 1): 7.89 µM (active)
- AC50 [8]: 1.25 µM (active)
- AC50 [9]: 2.65 µM (active)
- AC50 [10]: 13.1 µM (active)

SMILES: N#CC(C#N)=Cc1cccn1S(=O)(=O)c1ccccc1
- IC50 [11]: 20 µM (inactive)

SMILES: CC12C=CC(C)(O1)C1C(=O)N(c3ccc(Cl)cc3)C(=O)C12 (centres undefined)
- IC50 [12]: > 56.8 µM (inactive)
- IC50 [13]: > 56.8 µM (inactive)

SMILES: Cc1cc(OCC(=O)O)ccc1S(C)(=O)=O
- IC50 [14]: > 100 µM (inactive)
- IC50 [15]: > 100 µM (inactive)
- IC50 [16]: > 100 µM (inactive)
- IC50 [17]: > 99 µM (inactive)
- IC50 [18]: > 100 µM (inactive)
- IC50 [19]: > 100 µM (inactive)
- IC50 [20]: > 99 µM (inactive)

SMILES: COC(=O)CN1C(=O)C(O)(CC(=O)c2ccc(C)cc2)c2ccccc21 (centres undefined)
- IC50 [21]: > 100 µM (inactive)

SMILES: Cc1csc(NC(=O)CSc2nnc3c4ccccc4nc(C(C)(C)C)n23)n1
- Absolute IC50 (XBP1) (X-box-binding protein 1): 10 µM

SMILES: CCOc1ccc(-n2c(Cc3cc(O)nc(O)n3)nnc2SCc2cccnc2)cc1
- AC50 (ORF 73): 76.4 µM (active)
